Source: US7273880B2, “Selective NPY (Y5) antagonists” (H. Lunbeck A/S, priority 1999, dated 2007)

Experiments:
[1] = target: T1, human Y5 receptor (hNPY-5) (Homo sapiens, UniProt Q15761); test: Radioligand binding to membranes, cloned human Y5 receptor; details: cloned human NPY Y5 receptor, radioligand competition binding; Tables 1-3; read-out: Ki, nM hNPY-5
T1 construct: expressed in transfected cells; host or cells: mouse fibroblast LM(tk-) cells, e.g. L-hY5-7 (ATCC CRL-11995)
T1 sequence (Q15761 1-445): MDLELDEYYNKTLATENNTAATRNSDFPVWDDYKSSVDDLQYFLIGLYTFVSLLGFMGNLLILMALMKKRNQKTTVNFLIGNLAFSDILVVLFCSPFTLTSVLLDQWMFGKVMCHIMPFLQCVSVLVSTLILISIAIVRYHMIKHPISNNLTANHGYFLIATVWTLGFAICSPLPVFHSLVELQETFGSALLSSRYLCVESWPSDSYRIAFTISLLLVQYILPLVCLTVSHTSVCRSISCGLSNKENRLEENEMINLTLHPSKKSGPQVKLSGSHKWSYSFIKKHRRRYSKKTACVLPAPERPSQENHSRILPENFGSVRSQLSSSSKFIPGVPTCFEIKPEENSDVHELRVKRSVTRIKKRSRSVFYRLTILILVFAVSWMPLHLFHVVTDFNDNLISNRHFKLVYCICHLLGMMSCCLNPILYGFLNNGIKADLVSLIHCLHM
How it was run: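 Competition binding on membranes from stably transfected 293 or LM(tk-) cells, with 0.08 nM ¹²⁵I-PYY in pH 7.4 HEPES buffer plus 0.1% BSA, 120 min at 30 °C, filtration and counting. Nonspecific binding defined by 300 nM human NPY, or 100 nM human PP for Y4; nonlinear regression.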

[2] = target: hNPY-1,2,4 (human Y1, Y2, Y4 receptors); test: Radioligand binding to membranes, cloned human Y1, Y2 and Y4 receptors; details: one bound given for all three
Procedure: Binding of the compounds of the present invention to human Y1, Y2, Y4, and Y5 receptors was evaluated using stably transfected 293 or LM(tk-) cells as described above. Stably transfected cell lines which may be used for binding assays include, for example, for the human Y1 receptor, 293-hY1-5 (deposited Jun. 4, 1996, under ATCC Accession No. CRL-12121), for the human Y2 receptor, 293-hY2-10 (deposited Jan. 27, 1994, under ATCC Accession No. CRL-11537), for the human Y4 receptor, L-hY4-3 (deposited Jan. 11, 1995, under ATCC Accession No. CRL-11779), and for human Y5 receptor, L-hY5-7 (deposited Nov. 15, 1995, under ATCC Accession No. CRL-11995). These cell lines were deposited with the American Type Culture Collection (ATCC), 10801 University Blvd., Manassas, Va. 20110-2209, U.S.A. under the provisions of the Budapest Treaty for the International Recognition of the Deposit of Microorganisms for the Purposes of Patent Procedure.
Membranes were harvested from COS-7 cells 48 hours after transient transfection. Adherent cells were washed twice in ice-cold phosphate buffered saline (138 mM NaCl, 8.1 mM Na2HPO4, 2.5 mM KCl, 1.2 mM KH2PO4, 0.9 mM CaCl2, 0.5 mM MgCl2, pH 7.4) and lysed by sonication in ice-cold sonication buffer (20 mM Tris-HCl, 5 mM EDTA, pH 7.7). Large particles and debris were cleared by low speed centrifugation (200×g, 5 min, 4° C.). Membranes were collected from the supernatant fraction by centrifugation (32,000×g, 18 min, 4° C.), washed with ice-cold hypotonic buffer, and collected again by centrifugation (32,000×g, 18 min, 4° C.). The final membrane pellet was resuspended by sonication into a small volume of ice-cold binding buffer (˜1 ml for every 5 plates: 10 mM NaCl, 20 mM HEPES, 0.22 mM KH2PO4, 1.26 mM CaCl2, 0.81 mM MgSO4, pH 7.4). Protein concentration was measured by the Bradford method (Bradford, 1976) using Bio-Rad Reagent, with bovine serum albumin as a standard. Membranes were held on ice for up to one hour and used fresh, or flash-frozen and stored in liquid nitrogen.
Membranes were prepared similarly from 293, LM(tk-), and NIH-3T3 cells. To prepare membranes from baculovirus infected cells, 2×10^7 Sf21 cells were grown in 150 mm tissue culture dishes and infected with a high-titer stock of hY5BB3. Cells were incubated for 2-4 days at 27° C., no CO2 before harvesting and membrane preparation as described above.
Membrane suspensions were diluted in binding buffer supplemented with 0.1% bovine serum albumin to yield an optimal membrane protein concentration so that ^125I-PYY (or alternative radioligand such as ^125I-NPY, ^125I-PYY3-36, or ^125I-[Leu^31Pro^34]PYY) bound by membranes in the assay was less than 10% of ^125I-PYY (or alternative radioligand) delivered to the sample (100,000 dpm/sample=0.08 nM for competition binding assays). ^125I-PYY (or alternative radioligand) and peptide competitors were also diluted to desired concentrations in supplemented binding buffer. Individual samples were then prepared in 96-well polypropylene microtiter plates by mixing 125I-PYY (25 μL) (or alternative radioligand), competing peptides or supplemented binding buffer (25 μL), and finally, membrane suspensions (200 μL). Samples were incubated in a 30° C. water bath with constant shaking for 120 min. Incubations were terminated by filtration over Whatman GF/C filters (pre-coated with 1% polyethyleneimine and air-dried before use), followed by washing with 5 mL of ice-cold binding buffer. Filter-trapped membranes were impregnated with MeltiLex solid scintillant (Wallac, Turku, Finland) and counted for ^125I in a Wallac Beta-Plate Reader. Alternatively, incubations were carried out in GF/C filter plates (pre-coated with 1% polyethyleneimine and air-dried before use), followed by vacuum filtration and three washes of 300 μL of ice-cold binding buffer. 50 μL of UltimaGold (Packard) scintillant were added and counted for ^125I in a Wallac MicroBeta Trilux. […]

SMILES | Ki [1] | Ki [2] | melting point
CS(=O)(=O)NCCCCNc1nc2c(s1)CCCc1ccc(F)cc1-2 [Example 5, 1-Aza-9-fluoro-4,5-dihydro-2-(4-(methane-sulfonylamino)-butyl)amino-3-thia-benzo[e]azulene] | 19.8 nM | > 10000 nM | –
O=S(=O)(NCCCCNc1nc2c(s1)CCCc1ccc(F)cc1-2)c1ccccc1F [Example 7, 1-Aza-9-fluoro-2-(4-(2-fluorophenyl)sulfonylamino)-butylamino-4,5-dihydro-3-thia-benzo[e]azulene] | 23 nM | > 10000 nM | –
O=S(=O)(NCCCCCNc1nc2c(s1)CCCc1ccc(F)cc1-2)c1ccc(F)cc1F [Example 12, 1-Aza-9-fluoro-4,5-dihydro-2-(5-(2,4-difluoro-phenyl)sulfonylamino)pentylamino-3-thia-benzo[e]-azulene] | 6.1 nM | > 1000 nM | –
O=S(=O)(Cc1ccccc1)NCCCCCNc1nc2c(s1)CCCc1ccc(F)cc1-2 [Example 16, 1-Aza-2-(5-benzylsulfonylamino)pentylamino-9-fluoro-4,5-dihydro-3-thia-benzo[e]azulene] | 4.7 nM | > 10000 nM | –
O=S(=O)(NCCCCCNc1nc2c(s1)CCCc1ccc(F)cc1-2)c1ccc(F)c(F)c1 [Example 17, 1-Aza-2-(5-(3,4-difluorophenyl)sulfonylamino)-pentylamino-9-fluoro-4,5-dihydro-3-thia-benzo[e]-azulene] | 11 nM | > 10000 nM | –
COc1ccc(S(=O)(=O)NCCCCCNc2nc3c(s2)CCCc2ccc(F)cc2-3)cc1 [Example 18, 1-Aza-9-fluoro-4,5-dihydro-2-(5-(4-methoxyphenyl)-sulfonylamino)pentylamino-3-thia-benzo[e]azulene] | 7.1 nM | > 10000 nM | –
O=S(=O)(NC[C@H]1CC[C@H](Nc2nc3c(s2)CCCc2ccc(F)cc2-3)CC1)c1ccccc1F [Example 26, trans-1-aza-9-fluoro-2-(4-(2-fluorophenyl)sulfonyl-amino-methyl)cyclohexylamino-4,5-dihydro-3-thia-benzo [e]-azulene] | 13.1 nM | > 10000 nM | –
COc1ccc(S(=O)(=O)NC[C@H]2CC[C@H](Nc3nc4c(s3)CCCc3ccc(F)cc3-4)CC2)cc1 [Example 27, trans-1-Aza-9-fluoro-4,5-dihydro-2-{4-(4-methoxy-phenyl)-sulfonylaminomethyl}cyclohexylamino-3-thia-benzo[e]azulene] | 9.2 nM | > 10000 nM | –
O=S(=O)(Cc1ccccc1)NC[C@H]1CC[C@H](Nc2nc3c(s2)CCCc2ccc(F)cc2-3)CC1 [Example 29, trans-1-Aza-2-{4-benzylsulfonylaminomethyl}-cyclohexylamino-9-fluoro-4,5-dihydro-3-thia-benzo[e]-azulene] | 10.3 nM | > 10000 nM | –
O=S(=O)(NC[C@H]1CC[C@H](Nc2nc3c(s2)CCCc2ccc(F)cc2-3)CC1)c1cccs1 [Example 30, trans-N2-(4-(2-Thienylsulfonyl)aminomethyl)-cyclohexyl-9-fluoro-5,6-dihydro-4H-benzo[6,7]-cyclohepta[d][1,3]thiazol-2-amine] | 4.2 nM | > 10000 nM | –
COc1ccc2c(c1)CCCc1sc(N[C@H]3CC[C@H](CNS(C)(=O)=O)CC3)nc1-2 [Example 72, trans-1-Aza-4,5-dihydro-8-methoxy-2-(4-methyl-sulfonylamino-methyl)cyclohexylamino-3-thia-benzo[e]azulene] | 22 nM | – | 224 to 225 °C
CCCN(C=O)C[C@H]1CC[C@H](Nc2nc3c(s2)CCOc2ccccc2-3)CC1 [Example 85, N-{[4-(4,5-Dihydrobenzo[2,3]oxepino[4,5-d][1,3]-thiazol-2-ylamino)cyclohexyl]methyl}-N-propylformamide] | 150 nM | – | 53 to 55 °C
CS(=O)(=O)NCc1ccc(Nc2nc3c(s2)CCCc2ccc(F)cc2-3)cc1 [Example 90, N-{4-[(9-Fluoro-5,6-dihydro-4H-benzo[6,7]cyclohepta-[d][1,3]thiazol-2-yl)amino]benzyl}methanesulfonamide] | 5.7 nM | – | 148 to 150 °C

Molecules with a lower Ki [1], results first:

Ki [1] | Ki [2] | melting point | SMILES
2.4 nM | > 10000 nM | – | CS(=O)(=O)NCCCCCNc1nc2c(s1)CCCc1ccc(F)cc1-2 [Example 10, 1-Aza-9-fluoro-4,5-dihydro-2-(5-(methylsulfonyl-amino)-pentyl)amino-3-thia-benzo [e]azulene]
2.1 nM | > 10000 nM | – | CCN(CC)S(=O)(=O)NCCCCCNc1nc2c(s1)CCCc1ccc(F)cc1-2 [Example 14, 1-Aza-9-fluoro-4,5-dihydro-2-(5-(diethyl-aminosulfonyl-amino)pentyl)amino-3-thia-benzo[e]-azulene]
2.5 nM | > 10000 nM | – | CCS(=O)(=O)NCCCCCNc1nc2c(s1)CCCc1ccc(F)cc1-2 [Example 21, 1-Aza-9-fluoro-2-(5-ethylsulfonylamino)pentylamino-4,5-dihydro-3-thia-benzo[e]azulene]
2.9 nM | > 10000 nM | – | CCN(CC)S(=O)(=O)NCCCCNc1nc2c(s1)CCCc1ccc(F)cc1-2 [Example 22, 1-Aza-2-(4-diethylaminosulfonylamino)butylamino-9-fluoro-4,5-dihydro-3-thia-benzo[e]azulene]
3.5 nM | > 10000 nM | – | Cc1noc(C)c1S(=O)(=O)NCCCCCNc1nc2c(s1)CCCc1ccc(F)cc1-2 [Example 24, 1-Aza-9-fluoro-4,5-dihydro-2-(5-(3,5-dimethyl-isoxazol-4-yl)sulfonylamino)pentylamino-3-thia-benzo[e]azulene]
2.9 nM | > 10000 nM | – | NS(=O)(=O)NCCCCCNc1nc2c(s1)CCCc1ccc(F)cc1-2 [Example 25, 1-Aza-9-fluoro-4,5-dihydro-2-(5-aminosulfonylamino)-pentylamino-3-thia-benzo[e]azulene]
4 nM | > 10000 nM | – | O=S(=O)(NC[C@H]1CC[C@H](Nc2nc3c(s2)CCCc2ccc(F)cc2-3)CC1)c1c(F)cccc1F [Example 28, trans-N2-(4-(2,6-Difluorophenylsulfonyl)aminomethyl)-cyclohexyl-9-fluoro-5,6-dihydro-4H-benzo[6,7]-cyclohepta-[d][1,3]-thiazol-2-amine]
